Experimental data from patent publication US20130266636A1, “METHODS FOR BLOCKING CELL PROLIFERATION AND TREATING DISEASES AND CONDITIONS RESPONSIVE TO CELL GROWTH INHIBITION” (THE REGENTS OF THE UNIVERSITY OF CALIFORNIA, priority 2010, published 2013).
Entries after “also recorded” stand apart in the source; their conditions may differ.

Columns and labels:
[1] = target: T1, CRAF (Homo sapiens, UniProt P04049); test: Phospho-S338 CRAF immunoblot in XPA-1 cells; type: cell-based; parameters: total CRAF and total MEK of lysates from XPA-1 cells treated with PD0325901, Sorafenib, L-779450, PLX4720, KG5 or KG1; endogenous in cells; host or cells: XPA-1
Procedure: (§1) FIGS. 6 and 7 illustrate immunoblot analysis of CRAF immunoprecipitated from XPA-1 cells treated with KG5 and KG38.
FIG. 13 illustrates immunoblot analysis of phospho-5338 CRAF, phospho-MEK, total CRAF and total MEK of lysates from XPA-1 cells treated with PD0325901, Sorafenib, L-779450, PLX4720, KG5 or KG1.
(§2) Immunoprecipitation and Immunoblot Analysis Cells were lysed in either NP40 lysis buffer (150 mM NaCl, 50 mM Tris Base pH 7.4, 1% NP40) or RIPA buffer (50 mM Tris pH 7.4, 100 mM NaCl, 0.1% SDS) supplemented with complete protease inhibitor mixture (Roche), 50 mM NaF and 1 mM Na3VO4 and centrifuged at 13,000×g for 10 min at 4° C. Protein concentration was determined by BCA assay. […] of protein were immunoprecipitated with […] of anti-Flag (Sigma), anti-CRAF (BD Pharmingen), anti-Plk1 (Abcam), anti-γ-Tubulin (sigma) or anti-cenpF (Santa Cruz) antibodies overnight at 4° C. followed by capture with 25 μl of protein A/G (Pierce). Beads were washed five times, eluted in boiling Laemmli buffer, resolved on 10% SDS-PAGE and immunoblotting was performed with anti-Plk1 antibody (Abcam), anti-CRAF antibody (BD Pharmingen), anti-Aurora A (Abcam), anti-phospho-S338 CRAF (Cell Signaling), anti-phospho-T210 Plk1 or anti-phospho-T288 Aurora A (Cell signaling) diluted 1:1000. For immunoblot analysis, […] of protein was boiled in […]
Target sequence in this assay (P04049 whole entry): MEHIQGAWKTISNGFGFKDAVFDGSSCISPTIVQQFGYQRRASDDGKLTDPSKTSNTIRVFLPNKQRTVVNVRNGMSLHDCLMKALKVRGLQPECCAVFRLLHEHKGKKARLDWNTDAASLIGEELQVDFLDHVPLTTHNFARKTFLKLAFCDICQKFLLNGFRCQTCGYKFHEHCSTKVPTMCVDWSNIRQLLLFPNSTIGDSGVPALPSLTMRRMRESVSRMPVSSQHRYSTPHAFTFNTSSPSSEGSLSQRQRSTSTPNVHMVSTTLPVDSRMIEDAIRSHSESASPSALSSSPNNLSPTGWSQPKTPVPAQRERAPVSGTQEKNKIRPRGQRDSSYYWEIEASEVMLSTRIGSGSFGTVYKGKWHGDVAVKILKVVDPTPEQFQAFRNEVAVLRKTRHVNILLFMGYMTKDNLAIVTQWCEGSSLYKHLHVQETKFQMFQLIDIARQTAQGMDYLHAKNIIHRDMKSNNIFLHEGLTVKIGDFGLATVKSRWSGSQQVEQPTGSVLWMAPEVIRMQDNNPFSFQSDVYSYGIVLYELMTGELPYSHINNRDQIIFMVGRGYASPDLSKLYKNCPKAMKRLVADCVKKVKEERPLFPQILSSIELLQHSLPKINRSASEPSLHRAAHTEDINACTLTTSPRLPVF

[2] = target: RAF dimerization (BRAF and CRAF) (Homo sapiens, UniProt P04049); test: RAF dimerization, immunoblot of BRAF and CRAF immunoprecipitates from XPA-1 cells; type: cell-based; parameters: immunoblot analysis of BRAF and CRAF immunoprecipitates from XPA-1 cells; endogenous in cells; host or cells: XPA-1
Procedure: as §1
FIG. 14 illustrates immunoblot analysis of BRAF and CRAF immunoprecipitates from XPA-1 cells treated with PD0325901, Sorafenib, L-779450, PLX4720, KG5 or KG1.
as §2

[3] = tested on: human lung (A549) carcinoma cell line; test: Cell viability assay in A549 cells; type: cell-based
[4] = tested on: human breast (MDA-MB-231) carcinoma cell line; test: Cell viability assay in MDA-MB-231 cells; type: cell-based
[5] = tested on: human breast (T47D) carcinoma cell line; test: Cell viability assay in T47D cells; type: cell-based
[6] = tested on: A549 cells; test: Cell proliferation assay in A549 cells; type: cell-based, human
[7] = target: T1, CRAF; settings: 293H cells overexpressing catC, indicated amounts for 1 h; cited from earlier work
Target sequence in this assay (P04049 305-648 limits assumed, species assumed): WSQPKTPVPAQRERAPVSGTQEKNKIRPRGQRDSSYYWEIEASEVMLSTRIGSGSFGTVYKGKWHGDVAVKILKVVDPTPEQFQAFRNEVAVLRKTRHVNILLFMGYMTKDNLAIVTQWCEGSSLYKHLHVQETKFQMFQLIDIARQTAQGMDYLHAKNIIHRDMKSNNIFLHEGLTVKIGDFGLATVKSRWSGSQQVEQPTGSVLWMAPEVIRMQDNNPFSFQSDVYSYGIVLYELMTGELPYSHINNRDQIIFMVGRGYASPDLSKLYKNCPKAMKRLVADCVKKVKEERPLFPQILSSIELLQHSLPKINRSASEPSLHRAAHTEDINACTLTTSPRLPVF

[8] = target: T1, CRAF; test: CRAF localization to the mitotic spindle, confocal microscopy of XPA-1 cells; type: cell-based; parameters: total CRAF and total MEK of lysates from XPA-1 cells treated with PD0325901, Sorafenib, L-779450, PLX4720, KG5 or KG1; endogenous in cells; host or cells: XPA-1
From the text: FIG. 35. […] Data are representative of three independent experiments. FIG. 35 (b) Confocal microscopy images of human pancreatic XPA-1 and glioblastoma U251 cells during mitosis, stained for phospho-5338 CRAF (in green), α-tubulin (in red) and DNA (TOPRO-3™ in blue). Scale bar, 10 μm. White arrows indicate localization of phospho-S338 CRAF at the mitotic spindle. FIG. 35 (c) Immunoblot analysis of γ-tubulin immunoprecipitates from human colon carcinoma HCT-116 cells asynchronized and synchronized at pro-metaphase. Data are representative of three independent experiments. FIG. 35(d) Immunohistochemical staining of phospho-S338 CRAF in tumor biopsies from breast cancer patients. Scale bar, 10 μm. FIG. 35(e) Confocal microscopy images of XPA-1 cells treated with KG5, sorafenib, ZM336372, L779450 or paclitaxel and stained for CRAF (in green), γ-tubulin (in red) and DNA (TOPRO-3™ in blue). Scale bar, 10 μm. White arrows indicate localization of CRAF at the spindle pole. White circle indicates the absence of CRAF at the spindle pole.
Cells attached to cover-slips were fixed with cold methanol and permeabilized in PBS containing 0.1% triton for two minutes and blocked for 60 minutes, at room temperature with 2% BSA in PBS. Cells were stained with antibodies to CRAF (Abcam), phospho-serine 338 CRAF (SantaCruz), phospho-serine 338 CRAF (Thermo Scientific), a tubulin (Calbiochem), γ tubulin (Abcam), laminB (SantaCruz), Plk1 (Abcam), phospho-T210 Plk1 (Abcam), or phospho-T288 Aurora A (cell signaling). All primary antibodies were used at 1:100 dilution, for two hours at room temperature. After washing several times with PBS, cells were stained for two hours at room temperature, with secondary antibody specific for mouse, rabbit or goat (Invitrogen), as appropriate, diluted 1:300 and co-incubated with the DNA dye TOPRO-3™ (1:500) (Invitrogen). Samples were mounted in VECTASHIELD™ hard-set mounting media (Vector Laboratories) and imaged on a Nikon ECLIPSE C1™ confocal microscope with a 1.4 NA 60× oil-immersion lens, using minimum pinhole (30 μm). Images were captured using EZ-C1-3.50 imaging software.
Target sequence in this assay (P04049 whole entry): as the sequence (P04049 whole entry) above

[9] = tested on: XPA-1 cells; test: Cell cycle analysis, bright field and confocal microscopy of XPA-1 cells; type: cell-based, human; settings: XPA-1 cells, 20 hours
Procedure: FIG. 38. […] FIG. 38(a) Bright field images (scale bar, 20 μm), cell cycle analysis and confocal microscopy images (scale bar, 10 μm, laminB in red and DNA in blue) of XPA-1 cells treated for 20 hours with the allosteric RAF inhibitor KG5, the ATP-competitive inhibitor Sorafenib, the MEK inhibitor PD0325901, the control compound KG1 at 5 μM or paclitaxel at 200 nM. Cells were harvested after 20 hours and the cell cycle stage was determined by flow cytometry and confocal microscopy. White arrows indicate cells arrested at pro-metaphase. Scale bars, 10 μm. FIG. 38(b) Representative confocal microscopy images of untreated XPA-1 tumor cells undergoing mitosis (left image) and XPA-1 cell arrested with KG5 at pro-metaphase (right image). Cells were stained with α-tubulin in red and DNA in blue. Scale bar, 10 μm. FIG. 38(c) XPA-1 cells transfected with a vector control or active MEK were treated with 1 μM KG5 for 20 hours or left untreated and the G2/M population was quantified by flow cytometry. Error bars represent s.d. (n=3); * two tailed p value=0.00063 using a Mann Whitney U test. FIG. 38(d) Immunoblot analysis of XPA-1 cells untreated or treated with 1 μM KG5 for 18 hours. Data are representative of four independent experiments. […] Error bars represent s.d. (n=3); * two tailed p value=0.010 using a Mann Whitney U test. Inset, Immunoblot analysis of HCT-116 cells untreated or treated with 1 μM KG5 for 18 hours.
FIG. 39. […] FIG. 39 graphically illustrates cell cycle analysis of XPA-1 cells treated with the allosteric RAF inhibitor KG5, the microtubule stabilizer paclitaxel, or the ATP-competitive RAF inhibitors sorafenib, L-779450, GW 5074, and ZM-336372. Cells were harvested after 6, 18, 24, 48 and 72 hours and the percentages of cells in G2/M and SubG1 were determined by flow cytometry. Data are representative of three independent experiments.
Cell cycle analysis was performed by flow cytometry following propidium iodide staining. Briefly, cells were harvested, fixed with ice cold methanol, treated for 45 min with 10 μg/ml of RNase and resuspended in PBS containing 10 μg/ml of PI, and analyzed by flow cytometry. Cell cycle analysis was performed in cells treated for 18 hours with the allosteric RAF inhibitor KG5, the ATP-competitive RAF inhibitors: sorafenib, L-779450, GW5074, and ZM-336372, the MEK inhibitor (PD0325901) at […] concentration or paclitaxel at 100 nM.

RAF dimerization (BRAF and CRAF), sequence (P04049 whole entry): as above

Q: What does the source list for `CSc1nc(N)cc(Oc2ccc(-c3cnc(Nc4cccc(C(F)(F)F)c4)[nH]3)cc2)n1` [K38-B]?
A: serine 338 phosphorylation on CRAF [1]: prevent; RAF dimerization [2]: prevent RAF dimerization; cell viability ([3]; A549): decrease cell viability; potency relative to KG5 (cell viability EC50s) ([3]; A549): more potent than KG5; EC50 ([3]; A549 lung cancer cells): approach picomolar (pM) EC50s; cell viability ([4]; MDA-MB-231): decrease cell viability; potency relative to KG5 (cell viability EC50s) ([4]; MDA-MB-231): more potent than KG5; EC50 ([4]; MDA-MB-231 breast cancer cell viability assays): approach picomolar (pM) EC50s; cell viability ([5]; T47D): decrease cell viability; potency relative to KG5 (cell viability EC50s) ([5]; T47D): more potent than KG5; EC50 ([5]; T47D breast cancer cells): approach picomolar (pM) EC50s

Q: For `CCCS(=O)(=O)Nc1ccc(F)c(C(=O)c2c[nH]c3ncc(-c4ccc(Cl)cc4)cc23)c1F` [PLX4032], which cell proliferation [6] is on record?
A: induce proliferation

Q: For `CCCS(=O)(=O)Nc1ccc(F)c(C(=O)c2c[nH]c3ncc(Cl)cc23)c1F` [PLX4720], which “phosphorylation at S338 (pS338-CRAF immunoblot)” value [7] is on record?
A: steadily increased

Q: What about the cell proliferation [6] of the same molecule?
A: induce proliferation

Q: With `CNC(=O)c1cc(Oc2ccc(NC(=O)Nc3ccc(Cl)c(C(F)(F)F)c3)cc2)ccn1` [Sorafenib] as the molecule, how does the “CRAF localization to the mitotic spindle” value [8] read?
A: does not prevent CRAF localization to the mitotic spindle or midbodies

Q: What about the “arrest at pro-metaphase (confocal microscopy)” value [9] of the same molecule?
A: does not arrest cells at pro-metaphase

Q: And the cell proliferation [6]?
A: induce proliferation

Q: Which results are given for `CC(=O)O[C@H]1C(=O)[C@@]2(C)[C@H]([C@H](OC(=O)c3ccccc3)[C@]3(O)C[C@H](OC(=O)[C@H](O)[C@@H](NC(=O)c4ccccc4)c4ccccc4)C(C)=C1C3(C)C)[C@]1(OC(C)=O)CO[C@@H]1C[C@@H]2O` [paclitaxel]?
A: CRAF localization to the mitotic spindle [8]: does not affect CRAF localization to the mitotic spindle; also recorded: CRAF remained localized to the mitotic spindle; arrest at pro-metaphase (confocal microscopy) [9]: arrests cells at pro-metaphase
